≈ marks a conversion by molar mass, not a printed value.
Experiments:
[1] = system: Staphylococcus aureus FDA209P; test: Antibacterial activity, MIC by serial dilution method; assay type: cell-based; settings: 0.5% peptone agar, 37° C., 18 hours
S. aureus Smith = test: as above; assay type: cell-based; settings: Staphylococcus aureus, 0.5% peptone agar, 37° C., 18 hours
Micrococcus luteus FDA16 = test: as above; assay type: cell-based; settings: 0.5% peptone agar, 37° C., 18 hours
Bacillus anthracis = test: microbe, parasite or virus in culture; assay type: cell-based; settings: 18 h
B. subtilis NRRL B-558 = test: Antibacterial activity, MIC by serial dilution method; assay type: cell-based; settings: Bacillus subtilis, NRRLB558, 0.5% peptone agar, 37° C., 18 hours
B. subtilis PC1219 = test: as above; assay type: cell-based; settings: Bacillus subtilis, 0.5% peptone agar, 37° C., 18 hours
B. cereus ATCC10702 = test: as above; assay type: cell-based; settings: Bacillus cereus, 0.5% peptone agar, 37° C., 18 hours
Escherichia coli NIHJ = test: as above; assay type: cell-based; settings: 0.5% peptone agar, 37° C., 18 hours
E. coli K-12 = test: as above; assay type: cell-based; settings: Escherichia coli, K12, 0.5% peptone agar, 37° C., 18 hours
[2] = system: Shigella dysenteriae JS11910; test: as above; assay type: cell-based; settings: JS11910, 18 h
S. flexnelli 4b JS1811 = test: as above; assay type: cell-based; settings: 0.5% peptone agar, 37° C., 18 hours
Procedure: The minimum inhibitory concentrations (MIC.) of (R)-3,6-diamino-N-(2-aminoethyl)hexanamide of the formula (Ia) and (R)-3,6-diamino-N-(3-aminopropyl)hexanamide of the formula (Ib) against the growth of various bacteria were determined by a serial dilution method on a 0.5% peptone agar medium (incubated at 37° C. for 18 hours). The results obtained are shown in Table 1 below, in comparison with the MIC. of D-β-lysylmethanediamine (Bellenamine).

[3] = system: Klebsiella pneumoniae PCI602; test: as above; assay type: cell-based; settings: 0.5% peptone agar, 37° C., 18 hours
Proteus vulgaris OX19 = test: as above; assay type: cell-based; settings: 0.5% peptone agar, 37° C., 18 hours
P. mirabilis IFM OM-9 = test: as above; assay type: cell-based; settings: Proteus mirabilis, IFMOM9, 0.5% peptone agar, 37° C., 18 hours
[4] = system: Providencia rettgeri GN311; test: as above; assay type: cell-based; settings: 0.5% peptone agar, 37° C., 18 hours
P. rettgeri GN466 = test: as above; assay type: cell-based; settings: Providencia rettgeri, 0.5% peptone agar, 37° C., 18 hours
Serratia marcescens = test: as above; assay type: cell-based; settings: 0.5% peptone agar, 37° C., 18 hours
[5] = system: Pseudomonas aeruginosa A3; test: as above; assay type: cell-based; settings: 0.5% peptone agar, 37° C., 18 hours
HIV (HTLV-IIIB strain) = test: microbe, parasite or virus in culture; assay type: cell-based; settings: Human immunodeficiency virus 1, IIIB, MT4, 96 h, MT-4 cells, 4 days, 90 at 0 μg/ml, read-out: Rate (%) of presence of HIV antigen-positive cells; for activity at 0.1 µg/mL: 0.1 μg/ml; for activity at 1 µg/mL: 1 μg/ml; for activity at 10 µg/mL: 10 μg/ml
MT-4 cells = test: Cytotoxicity to MT-4 cells; assay type: cell-based, human; parameters: key: -: That the cytotoxicity was not observed; settings: absence of HIV
Procedure: Furthermore, cytotoxicity of the tested compound to the MT-4 cells was estimated. This was done by incubating the MT-4 cells at varying concentrations of the tested compound and in the absence of HIV but in the same manner of incubation and under the same conditions of incubation of MT-4 cells as those employed in the above-mentioned test procedures of assaying the activity of the tested compound to inhibit the infection of T-cells with HIV. That the cytotoxicity was not observed is represented by the symbol "-" in Table 2 below.

mice = test: Acute toxicity by intravenous injection to mice; assay type: in vivo; settings: 250 mg/kg
[6] = system: mouse leukemia P388 cells; test: Antitumor activity, growth inhibition of mouse leukemia P388 cells; assay type: cell-based
Procedure: In this way, such concentration of the tested compound which can inhibit the growth of the P388 cells by 50%, that is, the IC50 -value of the tested compound against the P388 cells was estimated. For comparison purpose, Bellenamine was tested in the same manner as above.

Solubility = assay type: physicochemical; settings: in water

| SMILES | MIC [1] [µg/mL] | MIC (S. aureus Smith) [µg/mL] | MIC (Micrococcus luteus FDA16) [µg/mL] | MIC (Bacillus anthracis) [µg/mL] | MIC (B. subtilis NRRL B-558) [µg/mL] | MIC (B. subtilis PC1219) [µg/mL] | MIC (B. cereus ATCC10702) [µg/mL] | MIC (Escherichia coli NIHJ) [µg/mL] | MIC (E. coli K-12) [µg/mL] | MIC [2] [µg/mL] | MIC (S. flexnelli 4b JS1811) [µg/mL] | MIC [3] [µg/mL] | MIC (Proteus vulgaris OX19) [µg/mL] | MIC (P. mirabilis IFM OM-9) [µg/mL] | MIC [4] [µg/mL] | MIC (P. rettgeri GN466) [µg/mL] | MIC (Serratia marcescens) [µg/mL] | MIC [5] [µg/mL] | activity at 0.1 µg/mL (HIV (HTLV-IIIB strain)) [%] | activity at 1 µg/mL (HIV (HTLV-IIIB strain)) [%] | other results |
| --- | --- | --- | --- | --- | --- | --- | --- | --- | --- | --- | --- | --- | --- | --- | --- | --- | --- | --- | --- | --- | --- |
| NCCC[C@@H](N)CC(=O)NCCN [Compound (Ia), (R)-3,6-diamino-N-(2-aminoethyl)hexanamide] | 25 (≈ 133 µM) | 6.25 (≈ 33.2 µM) | > 200 | 100 (≈ 531 µM) | 25 (≈ 133 µM) | 25 (≈ 133 µM) | 50 (≈ 266 µM) | 100 (≈ 531 µM) | 200 (≈ 1060 µM) | 200 (≈ 1060 µM) | 100 (≈ 531 µM) | 200 (≈ 1060 µM) | 200 (≈ 1060 µM) | 25 (≈ 133 µM) | 25 (≈ 133 µM) | 50 (≈ 266 µM) | 100 (≈ 531 µM) | 100 (≈ 531 µM) | 90 | 80 | activity at 10 µg/mL (HIV (HTLV-IIIB strain)): 30%; Cytotoxicity (given in brackets) (MT-4 cells; 0.1 μg/ml): -; Cytotoxicity (given in brackets) (MT-4 cells; 1 μg/ml): -; Cytotoxicity (given in brackets) (MT-4 cells; 10 μg/ml): -; Acute toxicity (death of mice) (mice): did not cause death of mice; IC50 [6]: 0.012 µg/mL (≈ 0.0637 µM); Solubility (Solubility): highly soluble in water |
| NCCC[C@@H](N)CC(=O)NCN [Bellenamine, D-β-lysylmethanediamine] | 50 (≈ 287 µM) | 6.25 (≈ 35.9 µM) | > 200 | 100 (≈ 574 µM) | 12.5 (≈ 71.7 µM) | 12.5 (≈ 71.7 µM) | 50 (≈ 287 µM) | 200 (≈ 1150 µM) | > 200 | > 200 | > 200 | > 200 | > 200 | 200 (≈ 1150 µM) | 50 (≈ 287 µM) | 100 (≈ 574 µM) | 200 (≈ 1150 µM) | 200 (≈ 1150 µM) | 50 | 5 | activity at 10 µg/mL (HIV (HTLV-IIIB strain)): 10%; Cytotoxicity (given in brackets) (MT-4 cells; 0.1 μg/ml): -; Cytotoxicity (given in brackets) (MT-4 cells; 1 μg/ml): -; Cytotoxicity (given in brackets) (MT-4 cells; 10 μg/ml): -; IC50 [6]: 0.36 µg/mL (≈ 2.07 µM) |
| NCCCNC(=O)C[C@H](N)CCCN [Compound (Ib), (R)-3,6-diamino-N-(3-aminopropyl)hexanamide] | 200 (≈ 989 µM) | 50 (≈ 247 µM) | > 200 | 200 (≈ 989 µM) | 100 (≈ 494 µM) | 100 (≈ 494 µM) | 200 (≈ 989 µM) | 200 (≈ 989 µM) | 200 (≈ 989 µM) | 200 (≈ 989 µM) | 200 (≈ 989 µM) | > 200 | 200 (≈ 989 µM) | 50 (≈ 247 µM) | 100 (≈ 494 µM) | 50 (≈ 247 µM) | 200 (≈ 989 µM) | 200 (≈ 989 µM) | 80 | 10 | activity at 10 µg/mL (HIV (HTLV-IIIB strain)): 5%; Cytotoxicity (given in brackets) (MT-4 cells; 0.1 μg/ml): -; Cytotoxicity (given in brackets) (MT-4 cells; 1 μg/ml): -; Cytotoxicity (given in brackets) (MT-4 cells; 10 μg/ml): -; Acute toxicity (death of mice) (mice): did not cause death of mice; IC50 [6]: 0.028 µg/mL (≈ 0.138 µM); Solubility (Solubility): highly soluble in water |

— patent US5849797A, “D-β-lysylmethanediamine derivatives and preparation thereof” (Zaidan Hojin Biseibutsu Kagaku Kenkyu Kai, priority 1994, dated 1998)
